According to patent publication US10294202B2, “Pyrrolidinones as herbicides” (FMC Corporation, priority 2013, dated 2019):

Tests used:
cocklebur = assay: Test C pre-/postemergence herbicide test; format: in vivo, Xanthium strumarium
Description: (§1) Seeds of plant species selected from blackgrass (Alopecurus myosuroides), ryegrass, Italian (Italian ryegrass, Lolium multiflorum), wheat (winter wheat, Triticum aestivum), galium (catchweed bedstraw, Galium aparine), corn (Zea mays), crabgrass, large (large crabgrass, Digitaria sanguinalis), foxtail, giant (giant foxtail, Setaria faberii), johnsongrass (Sorghum halepense), lambsquarters (Chenopodium album), morningglory (Ipomoea coccinea), nutsedge, yellow (yellow nutsedge, Cyperus esculentus), pigweed (Amaranthus retroflexus), ragweed (common ragweed, Ambrosia elatior), soybean (Glycine max), barnyardgrass (Echinochloa crus-galli), oilseed rape (Brassica napus), waterhemp (common waterhemp, Amaranthus rudis), kochia (Kochia scoparia), oat, wild (wild oat, Avena fatua), surinam grass (Brachiaria decumbens), foxtail, green (green foxtail, Setaria viridis), goosegrass (Eleusine indica), bromegrass, downy (downy bromegrass, Bromus tectorum), nightshade (eastern black nightshade, Solanum ptycanthum), cocklebur (common cocklebur, Xanthium strumarium), cupgrass, woolly (woolly cupgrass, Eriochloa villosa), bermudagrass (Cynodon dactylon), sunflower, (common oilseed sunflower, Helianthus annuus), Russian thistle (Salsola kali) and velvetleaf (Abutilon theophrasti) were planted into a blend of loam soil and sand and treated preemergence with test chemicals formulated in a non-phytotoxic solvent mixture which included a surfactant. At the same time, plants selected from these crop and weed species and also barley (winter barley, Hordeum vulgare), […]), chickweed (common chickweed, Stellaria media), deadnettle (henbit deadnettle, Lamium amplexicaule), and canarygrass (littleseed canarygrass, Phalaris minor) were planted in pots containing Redi-Earth® planting medium (Scotts Company, 14111 Scottslawn Road, Marysville, Ohio 43041) comprising spaghnum peat moss, vermiculite, wetting agent and starter nutrients and treated with postemergence applications of test chemicals formulated in the same manner. Plants ranged in height from 2 to 18 cm (1- to 4-leaf stage) for postemergence treatments. Treated plants and controls were maintained in a greenhouse for 13 to 15 days, after which time all species were compared to controls and visually evaluated. Plant response ratings, summarized in Table C, are based on a scale of 0 to 100 where 0 is no effect and 100 is complete control. A dash (-) response means no test result.

sunflower = assay: Test C pre-/postemergence herbicide test; format: in vivo, Helianthus annuus; conditions: Preemergence
Description: as §1

speedwell = assay: Test D pre-/postemergence herbicide test; format: in vivo, Veronica persica; conditions: for Plant response rating: Postemergence, Speedwell, scale 0 to 100; for Plant response rating, Speedwell: Preemergence, scale 0 to 100 (0 no effect, 100 complete control)
Method in brief: (§2)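 Visual 0–100 ratings (0 = no effect, 100 = complete control) versus controls, made 7 to 21 days after treatment in a controlled growth environment. Test chemicals in surfactant-containing non-phytotoxic solvent were applied preemergence to silt loam-sown seeds and postemergence to plants 2–18 cm tall.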

chickweed = assay: Test D pre-/postemergence herbicide test; format: in vivo, Stellaria media; conditions: Postemergence, Chickweed, scale 0 to 100
Method in brief: as §2

kochia = assay: Test D pre-/postemergence herbicide test; format: in vivo, Kochia scoparia; conditions: for Plant response rating: Kochia, scale 0 to 100; for Plant response rating, Kochia: scale 0 to 100 (0 no effect, 100 complete control)
Method in brief: as §2

radish, wild = assay: Test D pre-/postemergence herbicide test; format: in vivo, Raphanus raphanistrum; conditions: for Plant response rating: Postemergence, Radish, Wild, scale 0 to 100
Method in brief: as §2

[1] = Preemergence, 62 g ai/ha, scale 0 to 100
[2] = Preemergence, 31 g ai/ha, scale 0 to 100 (0 no effect, 100 complete control)
[3] = Preemergence, 250 g ai/ha, scale 0 to 100 (0 no effect, 100 complete control)
[4] = 125 g ai/ha, scale 0 to 100 (0 no effect, 100 complete control)
[5] = Preemergence, 125 g ai/ha, scale 0 to 100 (0 no effect, 100 complete control)
[6] = Postemergence, 31 g ai/ha, scale 0 (no effect) to 100 (complete control)
[7] = Postemergence, 62 g ai/ha, scale 0 to 100 (0 no effect, 100 complete control)
[8] = Postemergence, 125 g ai/ha, scale 0 to 100 (0 no effect, 100 complete control)
[9] = Postemergence, 250 g ai/ha, scale 0 to 100 (0 no effect, 100 complete control)

O=C1NCC(c2ccc(Cl)c(Cl)c2)C1C(=O)Nc1ccccc1F (racemic) [Compound 14]
Plant response rating, Cocklebur (cocklebur; [1]): 0
Cocklebur plant response rating (cocklebur; [2]): 0
Plant response rating, Cocklebur (cocklebur; [3]): 0
Plant response rating, Sunflower (sunflower; 62 g ai/ha, scale 0 to 100): 0
Plant response rating, Sunflower (sunflower; [4]): 0

O=C1NCCC1C(=O)N(c1ccc(F)c(F)c1)c1ccccc1F (stereo not shown) [Compound 5, N-(3,4-difluorophenyl)-N-(2-fluorophenyl)-2-oxo-3-pyrrolidinecarboxamide]
Plant response rating, Cocklebur (cocklebur; [1]): 0
Plant response rating, Cocklebur (cocklebur; [5]): 0
Cocklebur plant response rating (cocklebur; [2]): 0
Plant response rating, Cocklebur (cocklebur; [3]): 0
Plant response rating, Sunflower (sunflower; 62 g ai/ha, scale 0 to 100): 0
Plant response rating, Sunflower (sunflower; [4]): 0

O=C1NCC(c2ccc(F)c(F)c2)C1C(=O)Nc1cccc(F)c1F (stereo not shown) [Compound 17, N-(2,3-difluorophenyl)-4-(3,4-difluorophenyl)-2-oxo-3-pyrrolidinecarboxamide]
Plant response rating (speedwell; 16 g ai/ha): 0
Plant response rating (speedwell; 31 g ai/ha): 0
Plant response rating (speedwell; 62 g ai/ha): 0
Plant response rating (speedwell; 125 g ai/ha): 0
Plant response rating (speedwell; 250 g ai/ha): 0
Plant response rating, Cocklebur (cocklebur; [6]): 0
Plant response rating, Cocklebur (cocklebur; [7]): 0
Plant response rating, Cocklebur (cocklebur; [8]): 0
Plant response rating, Cocklebur (cocklebur; [9]): 0
Plant response rating, Cocklebur (cocklebur; [1]): 5
Plant response rating, Cocklebur (cocklebur; [5]): 5
Cocklebur plant response rating (cocklebur; [2]): 0
Plant response rating, Cocklebur (cocklebur; [3]): 5
Plant response rating, Sunflower (sunflower; 62 g ai/ha, scale 0 to 100): 10
Plant response rating, Sunflower (sunflower; [4]): 20
Plant response rating (chickweed; 16 g ai/ha): 0
Plant response rating (chickweed; 31 g ai/ha): 0
Plant response rating (chickweed; 62 g ai/ha): 0
Plant response rating (chickweed; 125 g ai/ha): 25
Plant response rating (chickweed; 250 g ai/ha): 30
Plant response rating (kochia; Postemergence, 16 g ai/ha): 0
Plant response rating (kochia; Postemergence, 31 g ai/ha): 0
Plant response rating (kochia; Postemergence, 62 g ai/ha): 20
Plant response rating (kochia; Postemergence, 125 g ai/ha): 20
Plant response rating (kochia; Postemergence, 250 g ai/ha): 40
Plant response rating (radish, wild; 16 g ai/ha): 0
Plant response rating (radish, wild; 31 g ai/ha): 0
Plant response rating (radish, wild; 62 g ai/ha): 0
Plant response rating (radish, wild; 125 g ai/ha): 15
Plant response rating (radish, wild; 250 g ai/ha): 15

O=C1NCC(c2cc(F)c(F)c(F)c2)C1C(=O)Nc1cccc(F)c1F (stereo not shown) [Compound 48]
Plant response rating, Cocklebur (cocklebur; Postemergence, 16 g ai/ha, scale 0 to 100 (0 no effect, 100 complete control)): 0
Plant response rating, Cocklebur (cocklebur; [6]): 5
Plant response rating, Cocklebur (cocklebur; [7]): 10
Plant response rating, Cocklebur (cocklebur; [8]): 10
Plant response rating, Cocklebur (cocklebur; [1]): 0
Plant response rating, Cocklebur (cocklebur; [5]): 5
Plant response rating, Cocklebur (cocklebur; Preemergence, 16 g ai/ha, scale 0 to 100): 0
Cocklebur plant response rating (cocklebur; [2]): 0
Plant response rating, Sunflower (sunflower; 62 g ai/ha, scale 0 to 100): 0
Plant response rating, Sunflower (sunflower; [4]): 0
Plant response rating, Sunflower (sunflower; 16 g ai/ha, scale 0 to 100): 0

O=C1NCC(c2ccc(Cl)c(F)c2)C1C(=O)Nc1cccc(F)c1F (stereo not shown) [Compound 52]
Plant response rating (speedwell; 16 g ai/ha): 20
Plant response rating (speedwell; 31 g ai/ha): 20
Plant response rating (speedwell; 62 g ai/ha): 25
Plant response rating (speedwell; 125 g ai/ha): 40
Plant response rating (speedwell; 250 g ai/ha): 70
Plant response rating, Speedwell (speedwell; 62 g ai/ha): 90
Plant response rating, Speedwell (speedwell; 125 g ai/ha): 100
Plant response rating, Speedwell (speedwell; 16 g ai/ha): 0
Plant response rating, Speedwell (speedwell; 31 g ai/ha): 90
Plant response rating, Speedwell (speedwell; 250 g ai/ha): 100
Plant response rating, Cocklebur (cocklebur; [6]): 5
Plant response rating, Cocklebur (cocklebur; [7]): 5
Plant response rating, Cocklebur (cocklebur; [8]): 5
Plant response rating, Cocklebur (cocklebur; [9]): 5
Plant response rating, Cocklebur (cocklebur; [1]): 0
Plant response rating, Cocklebur (cocklebur; [5]): 0
Cocklebur plant response rating (cocklebur; [2]): 0
Plant response rating, Sunflower (sunflower; 62 g ai/ha, scale 0 to 100): 0
Plant response rating, Sunflower (sunflower; [4]): 0
Plant response rating (chickweed; 16 g ai/ha): 0
Plant response rating (chickweed; 31 g ai/ha): 0
Plant response rating (chickweed; 62 g ai/ha): 10
Plant response rating (chickweed; 125 g ai/ha): 15
Plant response rating (chickweed; 250 g ai/ha): 25
Plant response rating (kochia; Postemergence, 16 g ai/ha): 0
Plant response rating (kochia; Postemergence, 31 g ai/ha): 0
Plant response rating (kochia; Postemergence, 62 g ai/ha): 20
Plant response rating (kochia; Postemergence, 125 g ai/ha): 25
Plant response rating (kochia; Postemergence, 250 g ai/ha): 35
Plant response rating, Kochia (kochia; Preemergence, 62 g ai/ha): 20
Plant response rating, Kochia (kochia; Preemergence, 16 g ai/ha): 0
Plant response rating, Kochia (kochia; Preemergence, 31 g ai/ha): 20
Plant response rating (kochia; Preemergence, 125 g ai/ha): 20
Plant response rating (kochia; Preemergence, 250 g ai/ha): 40
Plant response rating, Radish, Wild (radish, wild; Preemergence, 16 g ai/ha, scale 0 to 100 (0 no effect, 100 complete control)): 0

O=C1NCC(c2ccc(F)c(Cl)c2)C1C(=O)Nc1ccccc1F (stereo not shown) [Compound 60]
Plant response rating, Cocklebur (cocklebur; [6]): 0
Plant response rating, Cocklebur (cocklebur; [7]): 0
Plant response rating, Cocklebur (cocklebur; [8]): 0
Plant response rating, Cocklebur (cocklebur; [1]): 0
Plant response rating, Cocklebur (cocklebur; [5]): 0
Plant response rating, Sunflower (sunflower; 62 g ai/ha, scale 0 to 100): 0
Plant response rating, Sunflower (sunflower; [4]): 0

O=C1NCC(c2cccc(OC(F)(F)F)c2)C1C(=O)Nc1ccccc1F (stereo not shown) [Compound 69]
Cocklebur plant response rating (cocklebur; Preemergence, 31 g ai/ha, scale 0 to 100, 0 is no effect and 100 is complete control): 0
Plant response rating (scale of 0 to 100), Cocklebur (cocklebur; Preemergence, 250 g ai/ha): 0
Sunflower plant response rating (sunflower; 31 g ai/ha, scale 0 to 100, 0 is no effect and 100 is complete control): 10
Plant response rating, Sunflower (sunflower; 62 g ai/ha, scale 0 to 100): 10
Plant response rating, Sunflower (sunflower; [4]): 10
Plant response rating (scale of 0 to 100), Sunflower (sunflower; 250 g ai/ha): 15
